Results as given in US20240343726A1, “PYRROLOPYRIDINE-3- AND 4-CARBOXAMIDE COMPOSITIONS AND METHODS FOR CELLULAR PROLIFERATION” (The Rockefeller University, priority 2021, published 2024).

These molecules were tested against LATS1 kinase (Homo sapiens (Human), UniProt O95835) (assay: LATS1 Biochemical HTRF Assay). Details: 2 mM ATP; read-out: LATS1_HTRF_2 mM ATP IC50.
Experimental: LATS1 Biochemical HTRF Assay
MgCl2 and [1 mM] DTT. 1× Enzymatic buffer diluted from 5× Enzymatic buffer*. Add 0.5 μL of 20× compound in 100% DMSO. […] MgCl2, [1 mM] DTIT and [5 mg/mL] BSA. 5×ERR prepared from 5× Enzymatic buffer with [25 mg/mL] BSA. Mix plate on plate shaker set at 1,350 rpm for 30 seconds, then centrifuge plate at 1,000 rpm for 1 minute. Incubate for 30 minutes at 25° C. on plate shaker set to 500 rpm. […] STK Substrate 1-biotin* then add 2 μL [10 mM] ATP. Mix plate on plate shaker set at 1,350 rpm for 30 seconds, then centrifuge plate at 1,000 rpm for 1 minute. Incubate for 40 minutes at 25° C. on plate shaker set to 500 rpm. […] Streptavidin-XL665 with 1×STK Antibody-Cryptate*. Mix plate on plate shaker set at 1,350 rpm for 30 seconds, then centrifuge plate at 1,000 rpm for 1 minute. Incubate for 60 minutes at 25° C. on plate shaker set to 500 rpm, covered from light.
*(Included in Cisbio KinEASE-STK Si HTRF Kit: 62ST1PEC)

Sequence of LATS1 kinase (O95835 589-1130): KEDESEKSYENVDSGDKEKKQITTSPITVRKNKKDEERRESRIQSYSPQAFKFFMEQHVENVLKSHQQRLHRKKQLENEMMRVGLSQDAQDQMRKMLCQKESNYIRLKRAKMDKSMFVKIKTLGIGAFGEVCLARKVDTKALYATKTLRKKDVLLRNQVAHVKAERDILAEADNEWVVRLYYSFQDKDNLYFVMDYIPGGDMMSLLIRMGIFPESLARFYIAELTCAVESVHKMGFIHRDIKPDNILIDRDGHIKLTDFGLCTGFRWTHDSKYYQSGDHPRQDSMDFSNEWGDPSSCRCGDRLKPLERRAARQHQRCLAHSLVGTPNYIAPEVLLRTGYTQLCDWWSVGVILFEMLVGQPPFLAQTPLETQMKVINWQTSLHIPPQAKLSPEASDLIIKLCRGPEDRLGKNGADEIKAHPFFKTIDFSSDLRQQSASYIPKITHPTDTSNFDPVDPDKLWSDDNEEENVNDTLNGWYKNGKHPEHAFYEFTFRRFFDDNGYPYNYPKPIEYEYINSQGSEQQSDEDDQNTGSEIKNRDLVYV

| SMILES | IC50 [nM] |
| --- | --- |
| CNC(=O)C1CS/C(=N\C(=O)c2c[nH]c3ncccc23)N1c1ccccc1 (stereo not shown) [Example 15, (Z)-2-((1H-pyrrolo[2,3-b]pyridine-3-carbonyl)imino)-N-methyl-3-phenylthiazolidine-4-carboxamide] | 7.9 |
| O=C(/N=C1\SCC2CNCCN12)c1c[nH]c2ncccc12 (stereo not shown) [Example 22, (Z)—N-(hexahydro-3H-thiazolo[3,4-a]pyrazin-3-ylidene)-1H-pyrrolo[2,3-b]pyridine-3-carboxamide] | 2130 |
| O=C(/N=C1\SCC(=O)N1c1ccccc1)c1c[nH]c2ncccc12 [Example 23] | 224 |
| O=C(/N=C1\SCCCN1c1ccccc1)c1ccnc2[nH]ccc12 [Example 29] | 1380 |
| CC1(C)CS/C(=N\C(=O)c2c[nH]c3ncccc23)N(C2CCCCC2)C1 [Example 33] | 4440 |
| CN(C)C(=O)CN1CCCS/C1=N\C(=O)c1c[nH]c2ncccc12 [Example 37, (Z)—N-(3-(2-(Dimethylamino)-2-oxoethyl)-1,3-thiazinan-2-ylidene)-1H-pyrrolo[2,3-b]pyridine-3-carboxamide] | 1680 |
| O=C(/N=C1\SCCCCN1Cc1ccccc1)c1c[nH]c2ncccc12 [Example 39, (Z)—N-(3-benzyl-1,3-thiazepan-2-ylidene)-1H-pyrrolo[2,3-b]pyridine-3-carboxamide] | 270 |
| O=C(/N=C1\SCCCCN1c1ccccc1)c1c[nH]c2ncccc12 [Example 40, (Z)—N-(3-phenyl-1,3-thiazepan-2-ylidene)-1H-pyrrolo[2,3-b]pyridine-3-carboxamide] | 220 |
| O=C(/N=c1\sccn1-c1cccc(Cl)c1)c1ccnc2[nH]ccc12 [Example 43] | 1670 |
| O=C(/N=c1\sccn1-c1ccc(Cl)cc1)c1ccnc2[nH]ccc12 [Example 44] | 360 |
| O=C(/N=c1\sccn1-c1ccccc1C(F)(F)F)c1ccnc2[nH]ccc12 [Example 48] | 1230 |
| Cc1cs/c(=N\C(=O)c2ccnc3[nH]ccc23)n1Cc1ccccc1 [Example 53] | 220 |
| O=C(/N=c1\scc(CO)n1-c1ccccc1Cl)c1ccnc2[nH]ccc12 [Example 55, (Z)—N-(3-(2-chlorophenyl)-4-(hydroxymethyl)thiazol-2(3H)-ylidene)-1H-pyrrolo[2,3-b]pyridine-4-carboxamide] | 68 |
| CN(C)Cc1cs/c(=N\C(=O)c2ccnc3[nH]ccc23)n1-c1ccccc1Cl [Example 59, (Z)—N-(3-(2-chlorophenyl)-4-((dimethylamino)methyl)thiazol-2(3H)-ylidene)-1H-pyrrolo[2,3-b]pyridine-4-carboxamide] | 215 |
| Cc1cn(-c2ccccc2Cl)/c(=N/C(=O)c2ccnc3[nH]ccc23)s1 [Example 61] | 1230 |
| O=C(/N=c1\sc(CO)cn1Cc1ccccc1)c1ccnc2[nH]ccc12 [Example 62, (Z)—N-(3-benzyl-5-(hydroxymethyl)thiazol-2(3H)-ylidene)-1H-pyrrolo[2,3-b]pyridine-4-carboxamide] | 4040 |
| O=C(/N=C1\SCCN1c1c(O)cccc1Cl)c1c[nH]c2ncccc12 [Example 74, (NZ)—N-[3-(2-chloro-6-hydroxy-phenyl)thiazolidin-2-ylidene]-1H-pyrrolo[2,3-b]pyridine-3-carboxamide] | 1.8 |
| O=C(/N=C1\SCCN1c1cc(F)ccc1O)c1c[nH]c2ncccc12 [Example 75] | 1.5 |
| O=C(/N=C1\SCCN1C1CCCC1O)c1c[nH]c2ncccc12 (stereo not shown) [Example 79, (NZ)—N-[3-(2-hydroxycyclopentyl)thiazolidin-2-ylidene]-1H-pyrrolo[2,3-b]pyridine-3-carboxamide] | 221 |
| O=C(/N=C1\SCC(CO)N1c1ccccc1Cl)c1c[nH]c2ncccc12 (stereo not shown) [Example 80] | 1.6 |
| O=C(/N=C1\SCCN1C1CCC(O)C1)c1c[nH]c2ncccc12 (stereo not shown) [Example 81, (Z)—N-(3-(3-hydroxycyclopentyl)thiazolidin-2-ylidene)-1H-pyrrolo[2,3-b]pyridine-3-carboxamide] | 50 |
| O=C(/N=C1\SCC(CO)N1Cc1ccccc1)c1c[nH]c2ncccc12 (stereo not shown) [Example 82] | 17 |
| N#Cc1cc2ncccc2n1C(=O)/N=c1\sccn1-c1ccccc1 [Example 87] | 2140 |

Second part, the molecule after the results:

| IC50 [nM] | SMILES |
| --- | --- |
| 500 | CN(C)C(=O)CN1CCS/C1=N\C(=O)c1c[nH]c2ncccc12 [Example 18] |
| 3780 | O=C(/N=C1\SCC2CCCCN12)c1c[nH]c2ncccc12 (stereo not shown) [Example 21] |
| 2750 | CC(=O)N1CCC(N2CCCS/C2=N\C(=O)c2c[nH]c3ncccc23)CC1 [Example 31] |
| 650 | O=C(/N=c1\sccc(=O)n1-c1ccccc1)c1c[nH]c2ncccc12 [Example 38] |
| 33 | Cc1ccccc1-n1ccs/c1=N\C(=O)c1ccnc2[nH]ccc12 [Example 42] |
| 1770 | COc1ccccc1-n1ccs/c1=N\C(=O)c1ccnc2[nH]ccc12 [Example 46] |
| 765 | CCc1ccccc1-n1ccs/c1=N\C(=O)c1ccnc2[nH]ccc12 [Example 47] |
| 505 | O=C(/N=c1\sccn1C1CCCCC1)c1ccnc2[nH]ccc12 [Example 49] |
| 2060 | O=C(/N=c1\sccn1-c1ccc(CO)cc1Cl)c1ccnc2[nH]ccc12 [Example 50] |
| 31 | Cc1cs/c(=N\C(=O)c2ccnc3[nH]ccc23)n1C1CCCCC1 [Example 51] |
| 12 | Cc1cs/c(=N\C(=O)c2ccnc3[nH]ccc23)n1CC1CCCCC1 [Example 52] |
| 180 | O=C(/N=c1\scc(CO)n1Cc1ccccc1)c1ccnc2[nH]ccc12 [Example 54, (Z)—N-(3-benzyl-4-(hydroxymethyl)thiazol-2(3H)-ylidene)-1H-pyrrolo[2,3-b]pyridine-4-carboxamide] |
| 2780 | CN(C)C(=O)c1cs/c(=N\C(=O)c2ccnc3[nH]ccc23)n1-c1ccccc1Cl [Example 56] |
| 460 | CN(C)CCNC(=O)c1cs/c(=N\C(=O)c2ccnc3[nH]ccc23)n1Cc1ccccc1 [Example 57, (Z)-2-((1H-pyrrolo[2,3-b]pyridine-4-carbonyl)imino)-3-benzyl-N-(2-(dimethylamino)ethyl)-2,3-dihydrothiazole-4-carboxamide] |
| 330 | CC(=O)NCc1cs/c(=N\C(=O)c2ccnc3[nH]ccc23)n1-c1ccccc1Cl [Example 60, (Z)—N-(4-(acetamidomethyl)-3-(2-chlorophenyl)thiazol-2(3H)-ylidene)-1H-pyrrolo[2,3-b]pyridine-4-carboxamide] |
| 850 | O=C(/N=c1\sc(CO)cn1-c1ccccc1Cl)c1ccnc2[nH]ccc12 [Example 63, (Z)—N-(3-(2-chlorophenyl)-5-(hydroxymethyl)thiazol-2(3H)-ylidene)-1H-pyrrolo[2,3-b]pyridine-4-carboxamide] |
| 0.6 | O=C(/N=C1\SCCN1c1c(O)cccc1F)c1c[nH]c2ncccc12 [Example 70] |
| 1.1 | O=C(/N=C1\SCCN1c1ccc(F)cc1O)c1c[nH]c2ncccc12 [Example 72] |
| 1.4 | O=C(/N=C1\SCCN1c1cccc(F)c1O)c1c[nH]c2ncccc12 [Example 73] |
| 191 | O=C(/N=C1\SCCN1c1ccc[nH]c1=O)c1c[nH]c2ncccc12 [Example 76] |
| 4820 | O=C(/N=C1\SCCN1c1cccc(=O)[nH]1)c1c[nH]c2ncccc12 [Example 77] |
| 18 | O=C(/N=C1\SCCCN1c1cccc(O)c1)c1c[nH]c2ncccc12 [Example 78] |
| 900 | O=C(/N=c1\sccn1Cc1ccccc1)n1ccc2ncccc21 [Example 86] |
